For assay [1], the system named is presbyopic subjects. The experiment in a line: Near vision acuity after topical instillation (near test card at 16 inches; Reading vs. Baseline at 40 cm; onset, duration, Efficacy Index). In kind it is in vivo, human. The source says:
(§1) Subject is an emmetrope over the age of 45 with a baseline near vision of 20.100 and baseline distance vision of 20.20. Topical administration to the eye of 1% w/v pilocarpine in saline solution results in an improvement of near vision to 20.40 (8a), however this improvement comes at the expense of a reduction in distance vision to 20.100 (8b). […] A proper drug carrier can also have a beneficial effect.
(§2) 1.75% w/v aceclidine was formulated in 0.9% w/v saline with 0.02% w/v BAK. Drops were instilled binocularly into a subject. Near vision testing was performed at 16 inches on a Precision Vision 16″ near test card. All near vision testing was binocular.
(§3) As aceclidine is an […], the clinical effectiveness may vary with different ratios. For the present studies a nearly exact 50:50 ratio of stereoisomers was measured as best determined by polarimetry.
In brief, the score is calculated by multiplying the lines of improvement in near visual acuity by the number of hours the improvement lasts. For example a score of: 5 is equal to +1 lines of improvement in near visual acuity for 5 hours; 10 is equal to +1.5 lines of improvement for 6.7 hours; 15 is equal to 2 lines of improvement for 7.5 hours; 20 is equal to 2.5 lines of improvement for 8 hours; 25 is equal to 3+ lines of improvement for 8.3 hours and 35 is equal to 3.75+ lines of improvement for 9 hours.
2 subjects instilled 2 drops each of the above formulation in each eye about 5 minutes apart.

The test system of assay [2] is presbyopic subjects. Nature of the assay: Distance vision acuity after topical instillation. The assay is classed as in vivo, human. The note with it: baseline distance 20.20.
Text: as §1, §2, §3

Setting [3] is: 1% w/v pilocarpine or 1.55% w/v aceclidine in saline solution, emmetrope over 45, baseline near 20.100.
The mark [4] stands for this setting: 1% w/v pilocarpine or 1.55% w/v aceclidine in saline solution.

Where only a bound is given, the exact number is not on record here.

With `CC(=O)OC1CN2CCC1CC2` (racemic) [Aceclidine, aceclidine], the “near vision (FIG. 1)” value in the assay on presbyopic subjects [1] (setting [3]) is 20.40; in the assay on presbyopic subjects [1] (aceclidine in carrier with 0.042% w/v tropicamide), 20.15; in the assay on presbyopic subjects [1] (aceclidine in carrier: 5.5% HPβCD, 0.75% CMC, 0.25% NaCl, 0.01% BAK), less than 20.20. Further, the “time period of near vision improvement (FIG. 1)” value in the assay with presbyopic subjects [1] (1.55% w/v aceclidine in saline solution) came out at 6 h. Moreover, the near vision improvement result with presbyopic subjects [1] (1.75% aceclidine, 2.5% mannitol, 0.01% tropicamide, 5% polysorbate 80) is “up to 3 lines of vision acuity”. For the same compound, the “distance vision (FIG. 1)” value with presbyopic subjects [2] (setting [4]) is recorded as “without any effect on the baseline distance vision”.
Regarding `CC[C@@H]1C(=O)OC[C@@H]1Cc1cncn1C` [pilocarpine], the “near vision (FIG. 1)” value in the assay on presbyopic subjects [1] (setting [3]) is given as 20.40; in the assay with presbyopic subjects [1] (1% w/v pilocarpine with addition of 0.015% w/v tropicamide, baseline near 20.100), 20.25. Besides, the “distance vision (FIG. 1)” value with presbyopic subjects [2] (setting [4]) stood at 20.100; in the assay on presbyopic subjects [2] (1% w/v pilocarpine with addition of 0.015% w/v tropicamide), 20.55.

Values taken from patent publication US20190321334A1, “COMPOSITIONS AND METHODS FOR THE TREATMENT OF PRESBYOPIA” (priority 2018, published 2019).
